We go through two molecules from patent US9115358B2, “Moenomycin biosynthesis-related compositions and methods of use thereof” (priority 2006, dated 2015).

“Also recorded” adds a separate entry of the source.

For one assay, the system named is B. cereus. The assay can be described thus: Antibiotic disc diffusion assay of antibacterial activity against B. cereus. Type of assay: cell-based, Bacillus cereus ATCC19637. The conditions noted are these: purified moe A intermediates on B. cereus reporter strain; FIG. 19, 50-200 nM per disc. As for the experimental part:
Spots 1 and 2—moe A (100 and 10 nM per disc, respectively); 3—compound 15 (100 nM); 4—compound 16 (100 nM), 5—compound 17 (100 nM), 6—compound 24 (100 nM), 7—mixture of compounds 22 and 23 (200 nM), 8—compound 11 (100 nM), 9—mixture of compounds 22 and 23 (50 nM), 10—mixture of compounds 2 and 3 (200 nM), 11—compound 1 (200 nM), 12—extract from 5 g S. lividans TK24 mycelial cake.
Moes producers S. ghanaensis ATCC14672 and S. bambergiensis NRRL-B12101 were obtained from American Type Culture Collection (“ATCC”) and the U.S. Department of Agriculture, respectively. S. lividans TK24, S. coelicolor M145 (Kieser 2000), S. cyanogenus S136 (Westrich 1999) were used in studies on moe A resistance in Streptomyces. Bacillus cereus ATCC19637 was used as a moe-sensitive test culture.
For all moe production analysis procedures, equal amounts of biomass (wet weight) and fermentation medium were used. […]
Heterologous expression of moe biosynthetic genes in S. lividans TK24 leads to the production of moe derivatives and intermediates. […] Antibiotic disc diffusion assay, LC-MS, MS/MS and determination of accurate mass spectra of moenomycins were carried out as described in (Ostash 2007). ^1H NMR spectra of compound 11 (FIG. 4) were recorded on a Varian Inova 500 (500 MHz) instrument in D2O (4.80 ppm). […]

The subject of the next assay is bacteria. The settings on record: cited from earlier work.

Take `C=C(C/C=C(\C)CCC=C(C)C)CCC(C)(C)/C=C/CC/C(C)=C\CO[C@H](COP(=O)(O)OC1OC(C(N)=O)C(C)(O)C(OC(N)=O)C1OC1OC(COC2OC(CO)C(O)C(O)C2O)C(O)C(O)C1NC(C)=O)C(=O)O` (some centres unmarked) [Compound 11]: in the assay on B. cereus, the “antibacterial activity (bioactivity) in disk diffusion assay” value is “has biological activity; also recorded: biologically active”.

With Neryl-moenomycin, in the assay with bacteria, the “activity in vivo (biological / antibacterial activity)” value was “biologically inactive”.
